{"source": "ChEMBL document CHEMBL3871307", "about": "“Discovery of Chromane Propionic Acid Analogues as Selective Agonists of GPR120 with in Vivo Activity in Rodents” (ACS Med Chem Lett, 2017)", "key": {"[1]": {"target": "T1, Free fatty acid receptor 4 (Homo sapiens, UniProt Q5NUL3)", "T1 sequence (Q5NUL3 whole entry)": "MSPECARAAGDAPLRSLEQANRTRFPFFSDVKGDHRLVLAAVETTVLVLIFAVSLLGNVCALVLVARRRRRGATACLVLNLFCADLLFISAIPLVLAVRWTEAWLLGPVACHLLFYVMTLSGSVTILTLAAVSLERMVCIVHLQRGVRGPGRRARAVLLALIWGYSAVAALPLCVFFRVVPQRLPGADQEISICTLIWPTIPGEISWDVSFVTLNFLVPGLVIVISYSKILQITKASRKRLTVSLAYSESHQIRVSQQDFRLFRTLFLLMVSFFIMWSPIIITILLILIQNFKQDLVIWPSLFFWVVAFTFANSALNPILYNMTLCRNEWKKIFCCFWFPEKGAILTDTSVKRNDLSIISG", "assay": "Agonist activity at human GPR120 short isoform expressed in CHOK1 cells assessed as increase in IP1 accumulation after 60 mins by HTRF assay", "format": "functional, cell-based, CHO-K1"}, "[2]": {"assay": "Terminal half life in rat plasma at 0.1 mg/kg administered as iv casette dose by LC/MS/MS analysis", "format": "ADME, organism-based", "conditions": "read-out: beta t1/2 (converted)"}, "[3]": {"assay": "Volume of distribution at steady state in rat plasma at 0.1 mg/kg administered as iv casette dose by LC/MS/MS analysis", "format": "ADME, organism-based", "conditions": "read-out: Vdss"}, "Mus musculus": {"test_system": "Mus musculus", "assay": "Glucose lowering effect in C57BL/6 transverse aortic constriction mouse assessed as reduction in blood glucose pretreated for 60 mins via oral gavage followed by dextrose challenge measured up to 120 mins post glucose challenge by OGTT", "format": "functional"}, "[4]": {"assay": "Plasma concentration in C57BL/6 transverse aortic constriction mouse at 10 mg/kg, po via gavage measured at 3 hrs", "format": "ADME, organism-based", "conditions": "C57BL/6, mouse"}, "[5]": {"assay": "Plasma concentration in C57BL/6 transverse aortic constriction mouse at 30 mg/kg, po via gavage measured at 3 hrs", "format": "ADME, organism-based", "conditions": "C57BL/6, mouse"}, "[6]": {"assay": "Plasma concentration in wild type C57BL/6 transverse aortic constriction mouse harboring GPR120 at 150 mg/kg, po measured at 3 hrs", "format": "ADME, organism-based", "conditions": "C57BL/6, mouse"}, "[7]": {"target": "T2, Free fatty acid receptor 4 (Mus musculus, UniProt Q7TMA4)", "T2 sequence (Q7TMA4 whole entry)": "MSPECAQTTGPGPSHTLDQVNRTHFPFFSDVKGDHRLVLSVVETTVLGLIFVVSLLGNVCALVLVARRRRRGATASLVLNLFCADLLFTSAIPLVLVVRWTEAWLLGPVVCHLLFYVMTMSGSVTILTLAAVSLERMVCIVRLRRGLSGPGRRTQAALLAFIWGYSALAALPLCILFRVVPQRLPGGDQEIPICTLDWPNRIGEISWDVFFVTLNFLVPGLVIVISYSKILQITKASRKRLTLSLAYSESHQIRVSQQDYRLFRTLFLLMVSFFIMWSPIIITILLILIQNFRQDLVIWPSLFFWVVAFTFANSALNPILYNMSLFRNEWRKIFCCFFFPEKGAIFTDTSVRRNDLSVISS", "assay": "Agonist activity at mouse GPR120 expressed in human U2OS cells assessed as beta-arrestin recruitment after 90 mins by luminescence assay", "format": "cell-based"}, "[8]": {"assay": "Inhibition of IKr (unknown origin) expressed in HEK293 cells", "format": "cell-based, Homo sapiens"}, "[9]": {"target": "Sodium channel protein type 5 subunit alpha (Homo sapiens, UniProt Q14524)", "assay": "Inhibition of Nav1.5 (unknown origin)"}, "[10]": {"target": "Voltage-dependent L-type calcium channel subunit alpha-1C (Homo sapiens, UniProt Q13936)", "sequence (Q13936 whole entry)": "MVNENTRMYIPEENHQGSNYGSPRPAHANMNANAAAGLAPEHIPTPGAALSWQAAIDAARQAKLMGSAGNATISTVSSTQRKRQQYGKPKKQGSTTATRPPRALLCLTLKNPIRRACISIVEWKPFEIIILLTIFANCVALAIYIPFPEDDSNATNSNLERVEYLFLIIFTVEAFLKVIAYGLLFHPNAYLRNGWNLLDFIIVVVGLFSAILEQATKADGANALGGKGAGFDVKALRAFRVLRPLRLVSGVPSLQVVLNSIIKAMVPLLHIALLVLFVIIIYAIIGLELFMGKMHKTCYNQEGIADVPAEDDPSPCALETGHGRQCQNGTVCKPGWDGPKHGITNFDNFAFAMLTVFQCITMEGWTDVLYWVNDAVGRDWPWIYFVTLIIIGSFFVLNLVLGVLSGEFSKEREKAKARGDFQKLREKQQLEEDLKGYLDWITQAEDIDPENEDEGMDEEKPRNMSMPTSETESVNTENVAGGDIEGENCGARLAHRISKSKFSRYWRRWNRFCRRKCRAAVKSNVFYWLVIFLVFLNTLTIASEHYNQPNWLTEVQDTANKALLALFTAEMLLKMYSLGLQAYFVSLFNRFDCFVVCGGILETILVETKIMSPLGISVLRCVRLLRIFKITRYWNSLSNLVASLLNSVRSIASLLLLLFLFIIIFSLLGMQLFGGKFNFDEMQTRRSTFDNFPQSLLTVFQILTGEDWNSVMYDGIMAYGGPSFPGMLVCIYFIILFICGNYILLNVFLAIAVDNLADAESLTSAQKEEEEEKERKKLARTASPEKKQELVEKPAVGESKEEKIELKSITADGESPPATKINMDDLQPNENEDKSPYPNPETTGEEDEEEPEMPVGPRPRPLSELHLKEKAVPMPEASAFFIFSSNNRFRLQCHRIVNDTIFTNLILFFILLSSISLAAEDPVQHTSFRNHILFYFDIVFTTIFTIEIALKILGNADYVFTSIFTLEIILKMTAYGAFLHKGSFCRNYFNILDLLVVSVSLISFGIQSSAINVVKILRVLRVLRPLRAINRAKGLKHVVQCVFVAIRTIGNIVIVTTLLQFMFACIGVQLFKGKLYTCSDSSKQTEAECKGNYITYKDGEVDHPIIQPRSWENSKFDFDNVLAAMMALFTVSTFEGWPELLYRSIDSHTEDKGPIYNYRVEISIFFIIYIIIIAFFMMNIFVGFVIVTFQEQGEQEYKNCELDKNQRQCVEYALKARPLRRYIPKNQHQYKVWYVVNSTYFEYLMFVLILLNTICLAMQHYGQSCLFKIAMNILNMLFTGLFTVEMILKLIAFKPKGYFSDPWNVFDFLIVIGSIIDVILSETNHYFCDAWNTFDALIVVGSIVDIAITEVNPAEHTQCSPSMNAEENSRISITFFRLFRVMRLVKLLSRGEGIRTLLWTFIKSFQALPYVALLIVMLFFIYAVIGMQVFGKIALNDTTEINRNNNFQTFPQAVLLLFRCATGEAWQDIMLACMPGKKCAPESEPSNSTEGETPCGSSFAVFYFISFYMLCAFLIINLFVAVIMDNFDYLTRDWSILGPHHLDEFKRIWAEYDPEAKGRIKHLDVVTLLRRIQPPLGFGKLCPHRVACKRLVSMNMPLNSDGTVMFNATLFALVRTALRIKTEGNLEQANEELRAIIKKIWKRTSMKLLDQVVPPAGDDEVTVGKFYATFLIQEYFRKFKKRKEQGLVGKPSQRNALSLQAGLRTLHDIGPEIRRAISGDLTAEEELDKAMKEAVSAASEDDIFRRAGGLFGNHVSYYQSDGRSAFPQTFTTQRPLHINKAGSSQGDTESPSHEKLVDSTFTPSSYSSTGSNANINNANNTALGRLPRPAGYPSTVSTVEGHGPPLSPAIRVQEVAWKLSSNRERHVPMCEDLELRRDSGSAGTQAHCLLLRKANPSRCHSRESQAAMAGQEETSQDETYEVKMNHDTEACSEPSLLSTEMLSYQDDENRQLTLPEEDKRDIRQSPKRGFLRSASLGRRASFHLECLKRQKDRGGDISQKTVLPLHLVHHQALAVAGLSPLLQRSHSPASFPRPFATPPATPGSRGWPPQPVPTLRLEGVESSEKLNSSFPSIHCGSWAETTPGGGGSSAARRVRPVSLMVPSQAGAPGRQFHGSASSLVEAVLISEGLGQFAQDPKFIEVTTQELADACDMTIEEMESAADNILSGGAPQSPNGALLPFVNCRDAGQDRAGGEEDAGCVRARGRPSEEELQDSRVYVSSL", "assay": "Inhibition of Cav1.2 (unknown origin)"}, "Cytochrome P450 3A4": {"target": "Cytochrome P450 3A4 (Homo sapiens, UniProt P08684)", "sequence (P08684 whole entry)": "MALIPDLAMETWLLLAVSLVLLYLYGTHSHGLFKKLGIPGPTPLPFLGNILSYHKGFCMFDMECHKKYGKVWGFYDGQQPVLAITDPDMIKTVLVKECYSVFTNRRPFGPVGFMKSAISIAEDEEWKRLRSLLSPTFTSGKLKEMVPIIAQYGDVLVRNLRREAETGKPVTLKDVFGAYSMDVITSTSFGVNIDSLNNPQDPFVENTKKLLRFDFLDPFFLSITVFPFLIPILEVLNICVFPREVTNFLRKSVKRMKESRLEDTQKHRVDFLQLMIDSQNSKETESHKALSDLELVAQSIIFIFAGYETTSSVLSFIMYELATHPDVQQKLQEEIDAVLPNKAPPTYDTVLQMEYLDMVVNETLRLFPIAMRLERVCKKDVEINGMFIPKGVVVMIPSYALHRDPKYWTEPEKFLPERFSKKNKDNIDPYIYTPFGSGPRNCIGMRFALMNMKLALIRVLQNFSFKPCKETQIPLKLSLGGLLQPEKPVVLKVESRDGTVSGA", "assay": "Inhibition of human CYP3A4", "format": "ADME"}, "Cytochrome P450 2C9": {"target": "Cytochrome P450 2C9 (Homo sapiens, UniProt P11712)", "sequence (P11712 whole entry)": "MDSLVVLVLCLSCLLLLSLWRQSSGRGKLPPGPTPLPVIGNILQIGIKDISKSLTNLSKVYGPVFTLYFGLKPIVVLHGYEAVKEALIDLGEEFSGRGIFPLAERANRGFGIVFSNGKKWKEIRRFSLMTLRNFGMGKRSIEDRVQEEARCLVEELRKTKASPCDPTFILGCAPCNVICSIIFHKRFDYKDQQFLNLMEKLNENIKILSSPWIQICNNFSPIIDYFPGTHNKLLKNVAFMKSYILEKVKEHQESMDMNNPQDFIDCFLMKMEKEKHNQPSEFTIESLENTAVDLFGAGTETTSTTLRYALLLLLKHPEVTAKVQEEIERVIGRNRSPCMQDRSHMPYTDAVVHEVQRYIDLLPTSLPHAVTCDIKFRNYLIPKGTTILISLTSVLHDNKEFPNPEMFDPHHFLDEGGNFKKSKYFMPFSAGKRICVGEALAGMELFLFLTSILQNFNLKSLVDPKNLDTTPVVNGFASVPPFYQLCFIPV", "assay": "Inhibition of human CYP2C9", "format": "ADME"}, "[11]": {"target": "T3, Peroxisome proliferator-activated receptor alpha (Homo sapiens) (UniProt Q07869)", "T3 sequence (whole entry)": "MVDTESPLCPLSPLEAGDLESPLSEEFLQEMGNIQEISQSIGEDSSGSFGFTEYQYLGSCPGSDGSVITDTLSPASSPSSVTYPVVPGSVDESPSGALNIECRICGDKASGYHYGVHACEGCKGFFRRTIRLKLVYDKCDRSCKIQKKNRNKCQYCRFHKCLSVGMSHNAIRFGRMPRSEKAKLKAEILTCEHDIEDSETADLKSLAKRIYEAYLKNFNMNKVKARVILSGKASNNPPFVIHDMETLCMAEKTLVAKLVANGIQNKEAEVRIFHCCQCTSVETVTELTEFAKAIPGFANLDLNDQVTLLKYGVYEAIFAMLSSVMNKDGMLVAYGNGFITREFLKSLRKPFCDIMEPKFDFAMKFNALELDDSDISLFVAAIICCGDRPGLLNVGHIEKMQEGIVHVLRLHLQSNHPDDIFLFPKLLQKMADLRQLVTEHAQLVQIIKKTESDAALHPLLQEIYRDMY", "assay": "Activity at PPARalpha (unknown origin)"}, "[12]": {"assay": "Clearance in rat plasma at 1 mg/kg, iv or 2 mg/kg, po by LC/MS/MS analysis", "format": "ADME, organism-based"}, "[13]": {"assay": "Oral bioavailability in rat plasma at 2 mg/kg by LC/MS/MS analysis", "format": "ADME, organism-based"}, "[14]": {"assay": "Intrinsic clearance in rat plasma at 1 mg/kg, iv or 2 mg/kg, po by LC/MS/MS analysis", "format": "ADME, organism-based", "conditions": "in vivo"}, "[15]": {"assay": "Clearance in mouse plasma at 2 mg/kg, iv or 30 mg/kg, po by LC/MS/MS analysis", "format": "ADME, organism-based"}, "[16]": {"assay": "Volume of distribution at steady state in mouse plasma at 2 mg/kg, iv or 30 mg/kg, po by LC/MS/MS analysis", "format": "ADME, organism-based", "conditions": "read-out: Vdss"}, "[17]": {"assay": "Terminal half life in mouse plasma at 2 mg/kg, iv or 30 mg/kg, po by LC/MS/MS analysis", "format": "ADME, organism-based", "conditions": "read-out: beta t1/2 (converted)"}, "[18]": {"assay": "Mean residence time in mouse plasma at 2 mg/kg, iv or 30 mg/kg, po by LC/MS/MS analysis", "format": "ADME, organism-based"}, "[19]": {"assay": "Oral bioavailability in mouse plasma at 30 mg/kg by LC/MS/MS analysis", "format": "ADME, organism-based"}, "[20]": {"assay": "Protein binding in mouse plasma at 2 mg/kg, iv or 30 mg/kg, po by LC/MS/MS analysis", "format": "ADME, organism-based", "conditions": "read-out: PPB (converted)"}, "[21]": {"assay": "Intrinsic clearance in mouse plasma at 2 mg/kg, iv or 30 mg/kg, po by LC/MS/MS analysis", "format": "ADME, organism-based", "conditions": "in vivo"}, "[22]": {"assay": "AUC in rhesus monkey plasma at 0.5 mg/kg, iv by LC/MS/MS analysis", "format": "ADME, organism-based, Macaca mulatta"}, "[23]": {"assay": "Volume of distribution at steady state in rhesus monkey plasma at 0.5 mg/kg, iv or 1 mg/kg, po by LC/MS/MS analysis", "format": "ADME, organism-based, Macaca mulatta", "conditions": "read-out: Vdss"}, "[24]": {"assay": "Oral bioavailability in rhesus monkey plasma at 1 mg/kg by LC/MS/MS analysis", "format": "ADME, organism-based, Macaca mulatta"}, "[25]": {"assay": "Protein binding in rhesus monkey plasma at 0.5 mg/kg, iv or 1 mg/kg, po by LC/MS/MS analysis", "format": "ADME, organism-based, Macaca mulatta", "conditions": "read-out: PPB (converted)"}, "[26]": {"assay": "Intrinsic clearance in rhesus monkey plasma at 0.5 mg/kg, iv or 1 mg/kg, po by LC/MS/MS analysis", "format": "ADME, organism-based, Macaca mulatta", "conditions": "in vivo"}}}
{"smiles": "CO[C@H]1C[C@H](Oc2cc(F)c(F)c(-c3ccc4c(c3)CC[C@H](CCC(=O)O)O4)n2)C1", "values": [{"measurement": "EC50", "setting": "[1]", "result": 0.035, "unit": "µM"}, {"measurement": "half-life", "setting": "[2]", "result": 2.1, "unit": "h"}, {"measurement": "Vd", "setting": "[3]", "result": 0.24, "unit": "L/kg"}, {"measurement": "Activity", "setting": "Mus musculus", "result": "Dose-dependent effect"}, {"measurement": "minimal effective dose", "setting": "Mus musculus; C57BL/6, Blood, read-out: MED", "result": 10, "unit": "mg/kg"}, {"measurement": "concentration at 3 h", "setting": "[4]", "result": 1.17, "unit": "µM"}, {"measurement": "concentration at 3 h", "setting": "[5]", "result": 3.12, "unit": "µM"}, {"measurement": "concentration at 3 h", "setting": "[6]", "result": 43.9, "unit": "µM"}, {"measurement": "EC50", "setting": "[7]", "result": 0.0068, "unit": "µM"}, {"measurement": "IC50", "setting": "[8]", "result": "> 60", "unit": "µM"}, {"measurement": "IC50", "setting": "[9]", "result": 27, "unit": "µM"}, {"measurement": "IC50", "setting": "[10]", "result": 28, "unit": "µM"}, {"measurement": "IC50", "setting": "Cytochrome P450 3A4", "result": "> 50", "unit": "µM"}, {"measurement": "IC50", "setting": "Cytochrome P450 2C9", "result": "> 50", "unit": "µM"}, {"measurement": "Activity", "setting": "[11]", "result": "> 10", "unit": "µM"}, {"measurement": "clearance", "setting": "[12]", "result": 1.1, "unit": "mL/min/kg"}, {"measurement": "bioavailability", "setting": "[13]", "result": 93, "unit": "%"}, {"measurement": "CL", "setting": "[14]", "result": 470, "unit": "mL/min/kg"}, {"measurement": "clearance", "setting": "[15]", "result": 9.9, "unit": "mL/min/kg"}, {"measurement": "Vd", "setting": "[16]", "result": 1.4, "unit": "L/kg"}, {"measurement": "half-life", "setting": "[17]", "result": 3, "unit": "h"}, {"measurement": "MRT", "setting": "[18]", "result": 2.4, "unit": "h"}, {"measurement": "bioavailability", "setting": "[19]", "result": 76, "unit": "%"}, {"measurement": "fraction unbound", "setting": "[20]", "result": 0.0033}, {"measurement": "CL", "setting": "[21]", "result": 3400, "unit": "mL/min/kg"}, {"measurement": "AUC", "setting": "[22]", "result": 57.8, "unit": "µM·h"}, {"measurement": "Vd", "setting": "[23]", "result": 0.27, "unit": "L/kg"}, {"measurement": "bioavailability", "setting": "[24]", "result": 82, "unit": "%"}, {"measurement": "fraction unbound", "setting": "[25]", "result": 0.0022}, {"measurement": "CL", "setting": "[26]", "result": 150, "unit": "mL/min/kg"}]}
